In PubChem BioAssay (NCI):
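Grown in 96-well plates, cells were treated for 48 hours with each compound at five concentrations. Insufficient inhibition: endpoint recorded as highest concentration tested. GI50: concentration for 50% inhibition of growth. TGI denotes the concentration required for complete inhibition of growth.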

Experiments:
Assay in all cases: NCI anticancer screen, dose series, 48 h
CCRF-CEM leukemia = system: CCRF-CEM leukemia
HOP-62 NSCLC = system: HOP-62 NSCLC
HOP-92 NSCLC = system: HOP-92 NSCLC
IGROV1 ovarian = system: IGROV1 ovarian
KM12 colon = system: KM12 colon
M14 melanoma = system: M14 melanoma
OVCAR-4 ovarian = system: OVCAR-4 ovarian
SK-MEL-28 melanoma = system: SK-MEL-28 melanoma
SNB-19 CNS = system: SNB-19 CNS
SR leukemia = system: SR leukemia

Row | SMILES | TGI (CCRF-CEM leukemia) | TGI (HOP-62 NSCLC) | TGI (HOP-92 NSCLC) | TGI (IGROV1 ovarian) | TGI (KM12 colon) | TGI (M14 melanoma) | TGI (OVCAR-4 ovarian) | TGI (SK-MEL-28 melanoma) | TGI (SNB-19 CNS) | TGI (SR leukemia) | GI50 (CCRF-CEM leukemia) | GI50 (HOP-62 NSCLC) | GI50 (HOP-92 NSCLC) | GI50 (IGROV1 ovarian) | GI50 (KM12 colon) | GI50 (M14 melanoma) | GI50 (SK-MEL-28 melanoma) | GI50 (SNB-19 CNS) | GI50 (SR leukemia)
1 | Cc1cc(=O)[nH]c(NN2C(Cl)C(=O)C2c2c(O)ccc3ccccc23)n1 (stereo unspecified) | > 100 µM | 77 µM | 34.5 µM | > 100000 nM | 61500 nM | 29 µM | 51700 nM | 44100 nM | 77600 nM | 72.7 µM |  |  |  |  |  |  |  |  | 
2 | c1ccc(C2=NN[C@H](c3cn(-c4ccccc4)nc3-c3ccccc3)C2)cc1 | > 100 µM | 5.58 µM | 8.07 µM | > 100000 nM | > 100000 nM | > 100 µM |  | > 100000 nM | > 100000 nM | > 100 µM | > 100 µM | 2160 nM | 2720 nM | 5.57 µM | > 100 µM | 6.46 µM | 4.89 µM | 5.05 µM | > 100 µM
3 | Cc1n(CC(C)C)c2c([n+]1CC(=O)c1ccc([N+](=O)[O-])cc1)C(=O)c1ccccc1C2=O | 4.94 µM | 1.15 µM | 0.128 µM | 10.2 nM | 386 nM |  | 55 nM | 902 nM | 104 nM |  |  |  |  |  |  |  |  |  | 
4 | C=CCCCCn1c2ccccc2c2c(C)c3c[n+](C)ccc3c(C)c21 | 2.02 µM | 1.94 µM | 0.783 µM | 1400 nM | 1600 nM | 2.19 µM | 1270 nM | 1410 nM | 1730 nM | 1.1 µM |  |  |  |  |  |  |  |  | 
